Results on one compound are retold here after patent US10364233B2, “Piperidine derivative and methods of use thereof” (vTv Therapeutics LLC, priority 2016, dated 2019).

Test [1] relates to S100b mediated TNF release from THP-1 cells (RAGE signaling). Briefly: Functional assay: inhibition of S100b mediated TNF release from THP-1 cells. The format is cell-based. The note with it: Homo sapiens; THP-1 cells stimulated with bovine S100b; TNF-alpha by ELISA after 24 hours; hydrochloride salt. Here is the method:
Previously the literature has cited that THP-1 cells in response to RAGE ligands secrete TNF alpha (Yeh C-H, et al. Diabetes. Vol. 50, June 2001, pp. 1495-1504). The following assay method may be used to identify compounds of Formula (I) or pharmaceutically acceptable salts thereof which are useful as antagonists of RAGE signaling.
The myeloid cell line, THP-1 (ATTC # TIB-202), is cultured in RPMI-1640 media (ATCC, Cat #30-2001) supplemented with fetal bovine serum to a final concentration of 10% by volume and Penicillin-Streptomycin (Gibco, Cat #0.15140-122). Alternatively, media may be formulated using RPMI 1640 (Bio-Whitaker #12-702F) supplemented with 2 mM L-glutamine (Gibco #12381-018) adjusted to contain 1.5 g/L sodium bicarbonate (Gibco #25080-094), 4.5 g/L glucose, 10 mM HEPES (Cellgro #25-060-L1) and 1.0 mM sodium pyruvate (Gibco #11360-070) and supplemented with 0.05 mM 2-mercaptoethanol, […] per ATCC instructions. During culture, the culture cells may be maintained at a density between 5×10^4 and 1×10^6 viable cells/mL. […]
The amount of TNF-alpha secreted by the THP-1 cells may be measured 24 hours after the addition of the stimulant proteins to the cell culture using a commercially available ELISA kit (R&D Systems, Minneapolis, Minn. # DY210). […] The plate may be read at 450 nm within 30 minutes. […]

Test [2] has as its target sRAGE (β-amyloid as the RAGE ligand) (Homo sapiens, UniProt Q15109). The test can be described thus: General binding assay: inhibition of sRAGE binding to plate-bound β-amyloid. Particulars: n = 11, hydrochloride salt. Here is the method:
(§1) The following is one potential method for screening. S100b or β-amyloid (500 ng/100 μL/well) in 100 mM sodium bicarbonate/sodium carbonate buffer (pH 9.8) is loaded onto the wells of a NUNC Maxisorp flat bottom 96-well microtitre plate. The plate is incubated at 4° C. overnight. The wells are aspirated and treated with 50 mM imidazole buffer saline (pH 7.2) (with 5 mM CaCl2)/MgCl2) containing 1% bovine serum albumin (BSA) (300 μL/well) for 1 h at RT. The wells are aspirated.
(§2) The test compound is dissolved in nanopure water (concentration: 10-100 μM). DMSO may be used as co-solvent. 25 μL of test compound solution in 4% DMSO is added, along with 75 μL sRAGE (6 nM FAC) to each well and samples are incubated for 1 h at 37° C. The wells are washed several times with 155 mM NaCl pH 7.2 buffer saline and are soaked for several seconds between each wash.
(§3) Non-Radioactive Detection is Performed by Adding:
(§4) 10 μL Biotinylated goat F(ab′)2 Anti-mouse IgG. […]
(§5) 100 μL of complex is added to each well and incubation is allowed to proceed at rt for 1 h. […] The reaction is quenched with 10 μL of stop solution (0.5-1.0 N NaOH in 50% ethanol) and the absorbance is measured spectrophotometrically with a microplate reader at 405 nm. […]

In test [3] the target is sRAGE (S100b as the RAGE ligand) (Homo sapiens, UniProt Q15109). The test can be described thus: General binding assay: inhibition of sRAGE binding to plate-bound S100b. Particulars: n = 13, hydrochloride salt. Here is the method: as §1, §2, §3, §4, §5
Chain of UniProt Q15109 (Q15109 23-342 limits assumed): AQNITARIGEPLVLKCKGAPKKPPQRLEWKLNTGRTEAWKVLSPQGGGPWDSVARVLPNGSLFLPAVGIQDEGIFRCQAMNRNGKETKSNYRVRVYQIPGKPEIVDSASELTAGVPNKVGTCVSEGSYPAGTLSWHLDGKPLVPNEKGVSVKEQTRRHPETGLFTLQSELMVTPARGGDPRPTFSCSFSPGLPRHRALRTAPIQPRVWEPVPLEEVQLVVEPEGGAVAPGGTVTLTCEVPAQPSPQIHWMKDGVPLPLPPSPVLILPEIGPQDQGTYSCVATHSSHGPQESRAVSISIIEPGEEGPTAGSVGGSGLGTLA

Where two headings read alike, the source gives them in different places.

Chain of UniProt Q15109 (Q15109 23-342 limits assumed): as above

Regarding `Cc1nn(C2CCCCC2)c(C)c1S(=O)(=O)N1CCC(CN(CC(C)C)S(=O)(=O)c2ccc(CNCC3CCNCC3)cc2)(c2ccccc2)CC1` [compound of Formula (I), N-[1-(1-Cyclohexyl-3,5-dimethyl-1H-pyrazole-4-sulfonyl)-4-phenyl-piperidin-4-ylmethyl]-N-isobutyl-4-{[(piperidin-4-ylmethyl)-amino]-methyl}-benzenesulfonamide], the IC50 was approximately 500 nM in test [1]; 400 nM in test [2] (average, read-out: IC50 (β-amyloid) average); 270 to 600 nM in test [2] (range of individual determinations, read-out: IC50 (β-amyloid)); 420 nM in test [3] (average, read-out: IC50 (S100b) average); 220 to 620 nM in test [3] (range of individual determinations, read-out: IC50 (S100b)).
